Where two headings read alike, the source gives them in different places.
Experiments:
drIndy = drIndy (Drosophila melanogaster, UniProt Q9VVT2)
ceNaCT = biological target: T1, ceNaCT (Caenorhabditis elegans, UniProt P32739, I91S/L182M); test: Uptake via ceNaCT expressed in HRPE cells
T1 sequence (P32739 1-551 I91S/L182M): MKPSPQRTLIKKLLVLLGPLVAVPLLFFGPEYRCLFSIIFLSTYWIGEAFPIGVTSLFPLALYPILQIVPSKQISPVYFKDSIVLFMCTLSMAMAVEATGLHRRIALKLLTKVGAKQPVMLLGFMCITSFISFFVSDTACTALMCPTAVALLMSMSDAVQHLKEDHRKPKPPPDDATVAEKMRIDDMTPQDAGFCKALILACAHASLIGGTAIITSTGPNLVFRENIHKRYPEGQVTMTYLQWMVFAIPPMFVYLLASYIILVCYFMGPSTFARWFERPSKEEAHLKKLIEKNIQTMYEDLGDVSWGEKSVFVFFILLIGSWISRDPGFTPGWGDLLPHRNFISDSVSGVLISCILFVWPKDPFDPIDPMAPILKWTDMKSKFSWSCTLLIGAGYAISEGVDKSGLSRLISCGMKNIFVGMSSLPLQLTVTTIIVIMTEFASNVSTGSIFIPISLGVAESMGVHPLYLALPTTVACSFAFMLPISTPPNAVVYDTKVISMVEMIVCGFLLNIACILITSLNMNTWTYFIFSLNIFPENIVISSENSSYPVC

rat NaCT [1] = biological target: T2, rat NaCT (Rattus norvegicus, UniProt Q8CJ44); test: Uptake via rat NaCT expressed in HRPE cells; format: cell-based
T2 sequence (Q8CJ44 1-572): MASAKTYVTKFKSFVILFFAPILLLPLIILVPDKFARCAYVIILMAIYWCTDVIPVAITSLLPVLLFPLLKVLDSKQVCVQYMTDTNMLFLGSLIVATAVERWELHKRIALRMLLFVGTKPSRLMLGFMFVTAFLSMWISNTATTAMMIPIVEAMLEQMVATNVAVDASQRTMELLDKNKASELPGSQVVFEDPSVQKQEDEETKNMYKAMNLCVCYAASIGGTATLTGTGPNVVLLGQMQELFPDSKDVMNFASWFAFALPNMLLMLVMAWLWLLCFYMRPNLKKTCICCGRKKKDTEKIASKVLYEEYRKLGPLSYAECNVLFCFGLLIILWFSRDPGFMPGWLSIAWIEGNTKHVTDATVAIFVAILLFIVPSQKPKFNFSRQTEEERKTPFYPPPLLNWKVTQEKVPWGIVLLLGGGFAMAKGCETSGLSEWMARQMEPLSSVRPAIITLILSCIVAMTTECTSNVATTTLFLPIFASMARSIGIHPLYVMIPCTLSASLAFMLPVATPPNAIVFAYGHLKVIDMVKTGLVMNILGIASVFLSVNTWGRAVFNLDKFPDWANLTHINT

human NaCT = human NaCT (Homo sapiens, UniProt Q86YT5); test: Uptake via human NaCT expressed in HRPE cells; format: cell-based
mouse NaCT = biological target: T3, mouse NaCT (Mus musculus, UniProt Q67BT3); test: Transport via mouse NaCT expressed in HRPE cells; format: cell-based
T3 sequence (Q67BT3 1-572): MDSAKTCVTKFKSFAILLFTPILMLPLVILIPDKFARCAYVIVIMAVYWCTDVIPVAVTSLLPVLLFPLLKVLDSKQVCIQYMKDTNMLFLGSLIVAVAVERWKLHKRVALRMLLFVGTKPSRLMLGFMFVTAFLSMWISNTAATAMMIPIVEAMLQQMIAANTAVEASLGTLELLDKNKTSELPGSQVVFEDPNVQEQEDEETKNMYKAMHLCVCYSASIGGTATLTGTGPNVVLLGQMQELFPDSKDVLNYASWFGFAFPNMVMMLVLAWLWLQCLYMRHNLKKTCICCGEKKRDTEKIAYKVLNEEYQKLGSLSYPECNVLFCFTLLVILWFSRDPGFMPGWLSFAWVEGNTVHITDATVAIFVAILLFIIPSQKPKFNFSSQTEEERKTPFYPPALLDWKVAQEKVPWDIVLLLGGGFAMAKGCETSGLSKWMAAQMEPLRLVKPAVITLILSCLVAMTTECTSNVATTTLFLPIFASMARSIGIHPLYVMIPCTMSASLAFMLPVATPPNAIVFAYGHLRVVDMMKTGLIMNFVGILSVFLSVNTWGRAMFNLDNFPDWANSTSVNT

zebrafish NaCT = zebrafish NaCT (Danio rerio, UniProt A0A2R8QQN0, K78Q); test: Citrate uptake via zebrafish NaCT expressed in HRPE cells; format: cell-based; conditions: for Citrate uptake, zfNaCT, percent of corresponding control: 30 min
NaCT in HepG2 cells = biological target: T4, NaCT in HepG2 cells (Homo sapiens, UniProt Q86YT5); test: Citrate uptake in HepG2 cells (constitutively expressed NaCT); format: cell-based
T4 construct: the effect of Li^+ on constitutively expressed NaCT in human liver cells was studied; host or cells: HepG2
Protocol: Uptake measurement in human liver cell lines. The human liver cell lines (HepG2 and Huh-7) were cultured to confluency in 24-well culture plates using appropriate culture medium. The HepG2 cell line was obtained from American Type Culture Collection (Manasses, Va.). The Huh-7 cell line (Bode et al., (2002) Am. J. Physiol. 283, G1062-G1073) was provided by Dr. Barrie P. Bode (St. Louis University, St. Louis, Mo.). Uptake measurements in monolayer cultures of these cells were measured as described above for the heterologously expressed NaCTs.

[2] = cited from earlier work
rat NaCT [3] = biological target: T2, rat NaCT; test: Rat NaCT in X. laevis oocytes, voltage clamp and charge-to-substrate ratio; format: cell-based
[4] = Li+ 2 mM, valproate 0.6 μM, carbamazepine 50 μM
[5] = [14C]-citrate 20 μM, unlabeled compound 2.5 mM
[6] = [14C]-citrate 20 μM, unlabeled compound 2.5 mM, none = 100
[7] = [3H]-succinate 0.1 μM, substrate analog 2 mM
[8] = [3H]-succinate 0.1 μM, substrate analog 2 mM, control = 100
[9] = [14C]-citrate 10 μM, substrate analog 2 mM
[10] = [14C]-citrate 10 μM, substrate analog 2 mM, control = 100
[11] = competitor 2.5 mM, [14C]citrate 15 μM

Sequence of drIndy (Q9VVT2 19-590): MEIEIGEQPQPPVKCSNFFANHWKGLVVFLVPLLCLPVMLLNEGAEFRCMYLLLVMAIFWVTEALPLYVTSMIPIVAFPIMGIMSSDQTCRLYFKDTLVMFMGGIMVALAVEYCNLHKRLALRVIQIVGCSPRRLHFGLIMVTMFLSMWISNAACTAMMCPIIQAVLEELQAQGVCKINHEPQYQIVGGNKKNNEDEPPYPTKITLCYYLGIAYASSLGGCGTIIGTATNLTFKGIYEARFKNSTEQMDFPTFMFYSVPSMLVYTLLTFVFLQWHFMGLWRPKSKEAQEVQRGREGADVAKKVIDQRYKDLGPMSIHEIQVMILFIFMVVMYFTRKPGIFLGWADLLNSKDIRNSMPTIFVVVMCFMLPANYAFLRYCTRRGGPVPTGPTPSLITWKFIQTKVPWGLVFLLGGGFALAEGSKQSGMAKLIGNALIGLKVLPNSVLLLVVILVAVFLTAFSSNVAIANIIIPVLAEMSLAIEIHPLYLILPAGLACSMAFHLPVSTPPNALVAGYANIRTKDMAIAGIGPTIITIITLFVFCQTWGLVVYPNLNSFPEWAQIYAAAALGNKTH
T4 sequence (Q86YT5 whole entry): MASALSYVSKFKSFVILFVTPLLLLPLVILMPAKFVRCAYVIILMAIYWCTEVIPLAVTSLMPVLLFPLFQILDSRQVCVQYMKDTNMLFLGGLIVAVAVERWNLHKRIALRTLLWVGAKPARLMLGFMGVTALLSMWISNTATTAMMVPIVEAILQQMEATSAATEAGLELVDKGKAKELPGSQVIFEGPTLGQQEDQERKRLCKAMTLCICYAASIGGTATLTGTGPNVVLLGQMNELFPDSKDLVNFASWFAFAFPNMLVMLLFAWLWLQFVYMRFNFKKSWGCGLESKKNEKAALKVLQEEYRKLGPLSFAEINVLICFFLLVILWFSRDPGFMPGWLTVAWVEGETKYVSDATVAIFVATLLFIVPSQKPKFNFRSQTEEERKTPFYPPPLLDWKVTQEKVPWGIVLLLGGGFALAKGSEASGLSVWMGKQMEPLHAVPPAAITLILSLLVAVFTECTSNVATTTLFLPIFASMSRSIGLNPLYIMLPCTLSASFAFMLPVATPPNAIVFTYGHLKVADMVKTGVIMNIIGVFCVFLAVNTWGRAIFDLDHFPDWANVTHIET
Sequence of human NaCT (Q86YT5 whole entry): as above
Sequence of zebrafish NaCT (A0A2R8QQN0 2-582 K78Q): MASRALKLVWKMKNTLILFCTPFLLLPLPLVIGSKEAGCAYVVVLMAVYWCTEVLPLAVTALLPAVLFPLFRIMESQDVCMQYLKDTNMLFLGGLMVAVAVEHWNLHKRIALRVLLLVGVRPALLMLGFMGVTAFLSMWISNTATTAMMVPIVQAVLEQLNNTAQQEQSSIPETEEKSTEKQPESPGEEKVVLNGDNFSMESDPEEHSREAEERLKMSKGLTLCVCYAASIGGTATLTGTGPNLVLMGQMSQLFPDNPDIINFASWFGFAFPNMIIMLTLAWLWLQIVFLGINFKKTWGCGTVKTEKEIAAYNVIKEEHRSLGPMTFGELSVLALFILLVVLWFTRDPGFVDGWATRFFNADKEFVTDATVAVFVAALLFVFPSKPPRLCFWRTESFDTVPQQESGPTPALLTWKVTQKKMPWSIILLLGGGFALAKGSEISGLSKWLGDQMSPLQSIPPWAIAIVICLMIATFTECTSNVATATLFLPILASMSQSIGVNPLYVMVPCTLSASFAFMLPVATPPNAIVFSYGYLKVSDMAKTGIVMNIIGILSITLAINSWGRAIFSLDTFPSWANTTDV

## O=C(O)CCC(=O)C(=O)O [2-Oxoglutarate]
drIndy
  % Control of cDNA-specific [^3H]succinate uptake: 5%
drIndy; pH 7.5
  cDNA-specific [^3H] succinate uptake: 3.0 ± 1.0 fmol/106 cells per min
ceNaCT
  Competition with [^14C]citrate for ceNaCT-mediated uptake: inhibited markedly

## NC(=O)N1c2ccccc2C=Cc2ccccc21 [Carbamazepine, carbamazepine]
Rat NaCT [1]; [4]
  Citrate uptake, rNaCT: 133.5 ± 0.7 pmol/10^6 cells/min
  Citrate uptake, rNaCT, percent of corresponding control: 90%
Human NaCT; [4]
  Citrate uptake, hNaCT: 54.1 ± 2.6 pmol/10^6 cells/min
  Citrate uptake, hNaCT, percent of corresponding control: 105%
Mouse NaCT; [4]
  Citrate uptake, mNaCT: 43.7 ± 2.0 pmol/10^6 cells/min
  Citrate uptake, mNaCT, percent of corresponding control: 103%
Zebrafish NaCT
  Citrate uptake, zfNaCT: 441.0 ± 2.7 (91) pmol/10^6 cells/min
Zebrafish NaCT; hrpe cells
  Citrate uptake, zfNaCT, percent of corresponding control: 441.0 ± 2.7 (91) percent
NaCT in HepG2 cells; [4]
  Citrate uptake, HepG2 cells: 10.0 ± 0.2 pmol/min/mg protein
  Citrate uptake, HepG2 cells, percent of corresponding control: 106%
[2]; human, in vivo
  Therapeutic plasma levels in humans: 20 to 50 µM
ceNaCT; [4]
  Citrate uptake, ceNaCT: 45.1 ± 1.5 pmol/10^6 cells/min
  Citrate uptake, ceNaCT, percent of corresponding control: 104%

## O=C(O)/C=C/C(=O)O [Fumarate]
Rat NaCT [1]
  [^14C]Citrate uptake (cDNA-specific): 17.7 ± 1.4 Pmol/10^6 cells/min
  [^14C]Citrate uptake, %: 16%
Human NaCT
  [^14C]-Citrate Uptake (cDNA-specific): 43.7 ± 5.0 pmol/10^6 cells/min
  [^14C]-Citrate Uptake, %: 92%
Human NaCT; read-out: IC50 for inhibition of human NaCT-mediated [^14C]-citrate uptake
  IC50: 12.6 ± 5 mM
Mouse NaCT
  [^3H]-Succinate transport (NaCT-specific): 0.007 ± 0.002 pmol/10^6 cells/min
  [^3H]-Succinate transport, %: 5%
  [^14C]-Citrate transport (NaCT-specific): 1.6 ± 0.4 pmol/10^6 cells/min
  [^14C]-Citrate transport, %: 4%
drIndy
  % Control of cDNA-specific [^3H]succinate uptake: 6%
drIndy; pH 7.5
  cDNA-specific [^3H] succinate uptake: 4.8 ± 0.3 fmol/106 cells per min
ceNaCT
  Competition with [^14C]citrate for ceNaCT-mediated uptake: inhibited markedly

## CC(O)C(=O)O (stereo not drawn) [Lactate, lactate]
Rat NaCT [1]
  [^14C]Citrate uptake (cDNA-specific): 89.6 ± 2.0 Pmol/10^6 cells/min
  [^14C]Citrate uptake, %: 83%
Human NaCT
  [^14C]-Citrate Uptake (cDNA-specific): 61.2 ± 6.0 pmol/10^6 cells/min
  [^14C]-Citrate Uptake, %: 128%
Mouse NaCT
  [^3H]-Succinate transport (NaCT-specific): 0.162 ± 0.008 pmol/10^6 cells/min
  [^3H]-Succinate transport, %: 111%
  [^14C]-Citrate transport (NaCT-specific): 29.8 ± 3.4 pmol/10^6 cells/min
  [^14C]-Citrate transport, %: 78%
Rat NaCT [3]
  Substrate-induced currents: no or little currents
drIndy
  % Control of cDNA-specific [^3H]succinate uptake: 77%
drIndy; pH 7.5
  cDNA-specific [^3H] succinate uptake: 111.2 ± 3.2 fmol/106 cells per min
ceNaCT
  Competition with [^14C]citrate for ceNaCT-mediated uptake: only a minimal inhibition

## O=C(O)CC(O)C(=O)O (stereo not drawn) [Malate, malate]
Rat NaCT [1]; [14C]citrate 14 μM, unlabeled compound 2.5 mM
  [^14C]Citrate uptake (cDNA-specific): 7.8 ± 0.1 Pmol/10^6 cells/min
Rat NaCT [1]; [14C]citrate 14 μM, unlabeled compound 2.5 mM, none = 100
  [^14C]Citrate uptake, %: 7%
Human NaCT
  IC50: 3.12 ± 1.34 mM
Human NaCT; [5]
  [^14C]-Citrate Uptake (cDNA-specific): 29.5 ± 1.9 pmol/10^6 cells/min
Human NaCT; [6]
  [^14C]-Citrate Uptake, %: 62%
Mouse NaCT; [7]
  [^3H]-Succinate transport (NaCT-specific): 0.004 ± 0.001 pmol/10^6 cells/min
Mouse NaCT; [8]
  [^3H]-Succinate transport, %: 3%
Mouse NaCT; [9]
  [^14C]-Citrate transport (NaCT-specific): 0.2 ± 0.1 pmol/10^6 cells/min
Mouse NaCT; [10]
  [^14C]-Citrate transport, %: 1%
drIndy; [3H]succinate 40 nM, inhibitor 2.5 mM
  % Control of cDNA-specific [^3H]succinate uptake: 8%
drIndy; [3H]succinate 40 nM, inhibitor 2.5 mM, NaCl buffer pH 7.5
  cDNA-specific [^3H] succinate uptake: 6.8 ± 2.7 fmol/106 cells per min
ceNaCT; [11]
  Competition with [^14C]citrate for ceNaCT-mediated uptake: inhibited markedly

## O=C(O)/C=C\C(=O)O [Maleate]
Rat NaCT [1]
  [^14C]Citrate uptake (cDNA-specific): 78.8 ± 1.5 Pmol/10^6 cells/min
  [^14C]Citrate uptake, %: 73%
Human NaCT
  [^14C]-Citrate Uptake (cDNA-specific): 58.0 ± 6.7 pmol/10^6 cells/min
  [^14C]-Citrate Uptake, %: 121%
Mouse NaCT
  [^3H]-Succinate transport (NaCT-specific): 0.165 ± 0.014 pmol/10^6 cells/min
  [^3H]-Succinate transport, %: 113%
  [^14C]-Citrate transport (NaCT-specific): 31.2 ± 2.5 pmol/10^6 cells/min
  [^14C]-Citrate transport, %: 82%
drIndy
  % Control of cDNA-specific [^3H]succinate uptake: 85%
drIndy; pH 7.5
  cDNA-specific [^3H] succinate uptake: 123.1 ± 7.6 fmol/106 cells per min
ceNaCT
  Competition with [^14C]citrate for ceNaCT-mediated uptake: failed to compete with citrate

## O=C(O)CC(=O)O [Malonate, malonate]
Human NaCT
  [^14C]-Citrate Uptake (cDNA-specific): 57.3 ± 3.2 pmol/10^6 cells/min
  [^14C]-Citrate Uptake, %: 120%
drIndy
  % Control of cDNA-specific [^3H]succinate uptake: 71%
drIndy; pH 7.5
  cDNA-specific [^3H] succinate uptake: 98.8 ± 7.1 fmol/106 cells per min
ceNaCT
  Competition with [^14C]citrate for ceNaCT-mediated uptake: failed to inhibit the uptake of citrate

## CCCC(CCC)C(=O)O [Valproate, valproate]
Rat NaCT [1]; [4]
  Citrate uptake, rNaCT, percent of corresponding control: 96%
Human NaCT; [4]
  Citrate uptake, hNaCT, percent of corresponding control: 111%
Mouse NaCT; [4]
  Citrate uptake, mNaCT, percent of corresponding control: 100%
Zebrafish NaCT; [4]
  Citrate uptake, zfNaCT, percent of corresponding control: 93.2%
NaCT in HepG2 cells; [4]
  Citrate uptake, HepG2 cells, percent of corresponding control: 105%
[2]; patients under treatment
  Plasma concentrations / therapeutic plasma levels in humans: 300 to 600 µM
ceNaCT; [4]
  Citrate uptake, ceNaCT, percent of corresponding control: 106%

## O=C(O)/C=C(/CC(=O)O)C(=O)O [cis-Aconitate, cis-aconitate]
Human NaCT; [5]
  [^14C]-Citrate Uptake (cDNA-specific): 55.5 ± 3.3 pmol/10^6 cells/min
Human NaCT; [6]
  [^14C]-Citrate Uptake, %: 116%
Mouse NaCT; [7]
  [^3H]-Succinate transport (NaCT-specific): 0.062 ± 0.005 pmol/10^6 cells/min
Mouse NaCT; [8]
  [^3H]-Succinate transport, %: 43%
Mouse NaCT; [9]
  [^14C]-Citrate transport (NaCT-specific): 18.1 ± 1.8 pmol/10^6 cells/min
Mouse NaCT; [10]
  [^14C]-Citrate transport, %: 47%
Rat NaCT [3]; substrate 0.5 mM
  Substrate-induced currents as % of citrate-induced currents: approximately 10%
ceNaCT; [11]
  Competition with [^14C]citrate for ceNaCT-mediated uptake: did not compete with [^14C]citrate as effectively as unlabelled citrate

## tunicamycin
NaCT in HepG2 cells; treatment of HepG2 cells with tunicamycin
  Effect on NaCT activity in HepG2 cells: significant inhibition

— patent US20050095240A1, “NaCT as a target for lifespan expansion and weight reduction” (Medical College of Georgia Research, priority 2002, published 2005)
